Test results taken from ChEMBL document CHEMBL4251632, “Synthesis and antidepressant-like activity of novel aralkyl piperazine derivatives targeting SSRI/5-HT1A/5-HT7” (Eur J Med Chem, 2018).

Columns and labels:
[1] = target: Sodium-dependent serotonin transporter (Rattus norvegicus) (UniProt P31652); assay: Inhibition of [3H]serotonin reuptake in rat brain synaptosomes SERT at 10 uM after 15 mins by TopCount scintillation counting method relative to control; assay type: subcellular
[2] = target: T1, 5-hydroxytryptamine receptor 1A (Homo sapiens) (UniProt P08908); assay: Displacement of [3H]8-OH-DPAT from recombinant human 5-HT1A receptor expressed in HEK293 cell membranes at 10 uM after 60 mins by TopCount scintillation counting method relative to control
T1 sequence (whole entry): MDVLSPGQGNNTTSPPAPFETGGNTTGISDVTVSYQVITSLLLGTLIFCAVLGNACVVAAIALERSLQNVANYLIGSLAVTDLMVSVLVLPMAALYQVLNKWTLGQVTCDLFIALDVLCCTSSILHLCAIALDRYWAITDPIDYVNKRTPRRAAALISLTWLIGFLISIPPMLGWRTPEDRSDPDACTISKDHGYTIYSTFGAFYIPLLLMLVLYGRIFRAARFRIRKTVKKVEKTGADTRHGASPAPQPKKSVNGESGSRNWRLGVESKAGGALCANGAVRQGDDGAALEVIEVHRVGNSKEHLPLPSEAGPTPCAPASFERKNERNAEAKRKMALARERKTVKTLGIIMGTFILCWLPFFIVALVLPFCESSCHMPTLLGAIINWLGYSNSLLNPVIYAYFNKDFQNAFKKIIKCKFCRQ

[3] = target: T2, 5-hydroxytryptamine receptor 7 (Homo sapiens, UniProt P34969); assay: Displacement of [3H]LSD from recombinant human 5-HT7 receptor expressed in CHO cell membranes at 10 uM after 120 mins by TopCount scintillation counting method relative to control
T2 sequence (P34969 whole entry): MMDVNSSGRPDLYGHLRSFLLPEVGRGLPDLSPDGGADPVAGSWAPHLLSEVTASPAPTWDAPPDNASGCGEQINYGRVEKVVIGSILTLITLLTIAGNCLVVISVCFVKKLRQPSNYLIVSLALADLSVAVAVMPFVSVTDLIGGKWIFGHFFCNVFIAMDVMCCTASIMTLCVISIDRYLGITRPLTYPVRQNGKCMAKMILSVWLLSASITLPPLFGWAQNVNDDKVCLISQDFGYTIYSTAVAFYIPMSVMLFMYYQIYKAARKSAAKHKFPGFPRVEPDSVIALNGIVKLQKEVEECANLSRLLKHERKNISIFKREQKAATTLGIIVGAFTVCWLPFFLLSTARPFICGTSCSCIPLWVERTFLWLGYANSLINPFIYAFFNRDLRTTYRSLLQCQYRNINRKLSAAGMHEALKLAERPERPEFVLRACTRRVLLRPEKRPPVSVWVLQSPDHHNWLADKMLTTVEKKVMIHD

[4] = target: Sodium-dependent serotonin transporter (Rattus norvegicus, UniProt P31652); assay: Inhibition of [3H]serotonin reuptake in rat brain synaptosomes SERT after 15 mins by TopCount scintillation counting method; assay type: subcellular
Sequence of Sodium-dependent serotonin transporter (Rattus norvegicus, UniProt P31652) (P31652 whole entry): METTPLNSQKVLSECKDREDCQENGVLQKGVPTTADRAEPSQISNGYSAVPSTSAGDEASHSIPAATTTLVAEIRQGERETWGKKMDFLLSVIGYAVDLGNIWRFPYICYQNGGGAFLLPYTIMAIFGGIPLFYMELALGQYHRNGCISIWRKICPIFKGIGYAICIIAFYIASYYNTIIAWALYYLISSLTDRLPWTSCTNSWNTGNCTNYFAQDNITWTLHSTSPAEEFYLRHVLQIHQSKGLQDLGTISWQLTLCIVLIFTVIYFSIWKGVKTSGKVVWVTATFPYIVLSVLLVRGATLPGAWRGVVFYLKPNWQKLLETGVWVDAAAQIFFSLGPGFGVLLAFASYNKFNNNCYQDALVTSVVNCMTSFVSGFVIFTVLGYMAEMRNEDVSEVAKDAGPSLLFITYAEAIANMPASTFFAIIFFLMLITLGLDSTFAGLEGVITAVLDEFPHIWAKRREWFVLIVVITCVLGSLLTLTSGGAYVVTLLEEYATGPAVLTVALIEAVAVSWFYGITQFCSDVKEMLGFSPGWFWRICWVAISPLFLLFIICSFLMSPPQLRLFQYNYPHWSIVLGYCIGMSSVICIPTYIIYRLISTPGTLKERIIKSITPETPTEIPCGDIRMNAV

[5] = Clearance in rat liver microsomes at 1 uM in presence of NADPH by LC-MS/MS analysis; assay type: ADME, microsome; conditions: read-out: CLH
in vitro = conditions: rat, liver microsomes
Description: Half life in rat liver microsomes at 1 uM in presence of NADPH by LC-MS/MS analysis

[6] = target: T3, 5-hydroxytryptamine receptor 1A (Homo sapiens, UniProt P08908); assay: Displacement of [3H]8-OH-DPAT from recombinant human 5-HT1A receptor expressed in HEK293 cell membranes after 60 mins by TopCount scintillation counting method
T3 sequence (P08908 whole entry): T1 sequence (whole entry)

[7] = target: T2, 5-hydroxytryptamine receptor 7; assay: Displacement of [3H]LSD from recombinant human 5-HT7 receptor expressed in CHO cell membranes after 120 mins by TopCount scintillation counting method
[8] = target: Sodium-dependent serotonin transporter (Homo sapiens, UniProt P31645)
Sequence of Sodium-dependent serotonin transporter (Homo sapiens, UniProt P31645) (P31645 whole entry): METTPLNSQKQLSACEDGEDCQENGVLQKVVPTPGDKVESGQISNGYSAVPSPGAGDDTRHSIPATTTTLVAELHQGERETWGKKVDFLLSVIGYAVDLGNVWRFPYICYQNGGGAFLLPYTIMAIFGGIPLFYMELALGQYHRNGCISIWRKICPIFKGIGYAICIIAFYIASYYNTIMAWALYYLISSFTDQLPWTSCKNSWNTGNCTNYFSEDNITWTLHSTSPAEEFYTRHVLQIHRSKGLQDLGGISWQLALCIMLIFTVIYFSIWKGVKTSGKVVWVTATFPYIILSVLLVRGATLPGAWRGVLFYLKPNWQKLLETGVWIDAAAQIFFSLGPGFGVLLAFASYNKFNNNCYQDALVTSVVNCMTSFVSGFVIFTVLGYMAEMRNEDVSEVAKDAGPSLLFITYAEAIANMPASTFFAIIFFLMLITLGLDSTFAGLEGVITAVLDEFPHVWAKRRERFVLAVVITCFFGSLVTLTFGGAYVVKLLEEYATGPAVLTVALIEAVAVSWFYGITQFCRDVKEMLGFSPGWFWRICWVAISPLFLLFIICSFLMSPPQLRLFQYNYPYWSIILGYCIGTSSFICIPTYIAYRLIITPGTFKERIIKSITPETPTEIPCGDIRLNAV
Description: Inhibition of serotonin reuptake in SERT (unknown origin)

Mus musculus [9] = assay: Antidepressant-like activity in mouse assessed as reduction in immobility time at 40 mg/kg/day, po once daily for 7 days measured for last 4 mins of 6 mins test at 1 hr post last dose by forced swim test relative to control; assay type: functional; parameters: scale not given: the % may be the effect or the level left
Mus musculus [10] = assay: Antidepressant-like activity in mouse assessed as reduction in immobility time at 40 mg/kg/day, po administered once daily for 7 days measured for 5 mins at 1 hr post last dose by tail suspension test relative to control; assay type: functional; parameters: scale not given: the % may be the effect or the level left
Mus musculus [11] = assay: Antidepressant-like activity in mouse assessed as reduction in immobility time at 20 mg/kg/day, po once daily for 7 days measured for last 4 mins of 6 mins test at 1 hr post last dose by forced swim test relative to control; assay type: functional; parameters: scale not given: the % may be the effect or the level left
Mus musculus [12] = assay: Antidepressant-like activity in mouse assessed as reduction in immobility time at 10 mg/kg/day, po once daily for 7 days measured for last 4 mins of 6 mins test at 1 hr post last dose by forced swim test relative to control; assay type: functional; parameters: scale not given: the % may be the effect or the level left
Mus musculus [13] = assay: Antidepressant-like activity in po dosed mouse assessed as reduction in immobility time administered once daily for 7 days measured for last 4 mins of 6 mins test at 1 hr post last dose by forced swim test; assay type: functional, organism-based

Sequence of Sodium-dependent serotonin transporter (Rattus norvegicus) (P31652 whole entry): as the sequence (P31652 whole entry) above

Row | SMILES | IC50 [4] | Ki [6] | Ki [7] | inhibition [1] | inhibition [2] | inhibition [3] | microsomal CLint at 1 µM [5] | half-life at 1 µM (in vitro) | also measured
1 | N#Cc1ccc(-c2ccccc2N2CCN(CCc3c[nH]c4ccc(F)cc34)CC2)cc1 |  |  |  | 84.2% | 99.5% | 97.3% |  |  | 
2 | COc1ccc(-c2ccccc2N2CCN(CCc3c[nH]c4ccc(F)cc34)CC2)cc1 |  |  |  | 82.8% | 99.2% | 94.7% |  |  | 
3 | Fc1ccc(-c2ccccc2N2CCN(CCc3c[nH]c4ccc(F)cc34)CC2)cc1 | 590 nM |  |  | > 90% | 101% | 94.9% | 144 µL/min/mg | 9.6 min | 
4 | Fc1cc2c(c(OCCNCCCc3c[nH]c4ccc(F)cc34)c1)OCCC2 |  |  |  |  |  |  |  |  | Ki [8]: 0.47 nM
5 | COc1ccccc1N1CCN(CCc2coc3ccccc23)CC1 |  |  |  | 110% | 98.5% | 85.6% |  |  | 
6 | Fc1ccc2[nH]cc(CCN3CCN(c4ccccc4-c4ccccc4)CC3)c2c1 | 110 nM | 0.53 nM | 0.26 nM | > 90% | > 90% | > 90% | 226 µL/min/mg | 6.1 min | 
7 | COc1ccccc1N1CCN(CCCN2CCOc3ccccc32)CC1 |  |  |  |  |  |  |  |  | Ki [8]: 195 nM
8 | Cc1ccc(Sc2ccccc2N2CCNCC2)c(C)c1 [VORTIOXETINE] |  |  |  |  |  |  |  |  | Activity (Mus musculus [9]): 48 - 52%
9 | Cc1cccc(-c2ccccc2N2CCN(CCc3c[nH]c4ccc(F)cc34)CC2)c1 | 160 nM |  |  | > 90% | 98.1% | 97.3% |  |  | 
10 | Fc1ccc2[nH]cc(CCN3CCN(c4ccccc4-c4ccccc4F)CC3)c2c1 | 96 nM | 25 nM | 2.3 nM | > 90% | > 90% | > 90% | 343 µL/min/mg | 4 min | 
11 | Cc1ccc(-c2ccccc2N2CCN(CCc3c[nH]c4ccc(F)cc34)CC2)cc1 | 1700 nM |  |  | > 90% | 101% | 99.5% |  |  | 
12 | COc1ccc(C(CN(C)C)C2(O)CCCCC2)cc1 (stereo not given) [VENLAFAXINE] |  |  |  |  |  |  |  |  | Activity (Mus musculus [10]): 35%
13 | CSc1ccccc1N1CCN(CCc2coc3ccccc23)CC1 |  |  |  | 112% | 99.7% | 86.8% |  |  | 
14 | N#Cc1ccc2[nH]cc(CCN3CCN(c4ccccc4-c4ccccc4)CC3)c2c1 | 190 nM |  |  | > 90% | 97.6% | 93.7% |  |  | 
15 | c1ccc(-c2cccc(N3CCN(CCc4coc5ccccc45)CC3)c2)cc1 |  |  |  | 99.4% | 97.5% | 71.9% |  |  | 
16 | Fc1cccc(-c2ccccc2N2CCN(CCc3c[nH]c4ccc(F)cc34)CC2)c1 | 150 nM | 5.6 nM | 0.79 nM | > 90% | > 90% | 0.79% | 155 µL/min/mg | 9 min | 

Now from value to compound, other results behind:

Row | IC50 [4] | Ki [6] | Ki [7] | SMILES | inhibition [1] | inhibition [2] | inhibition [3] | microsomal CLint at 1 µM [5] | half-life at 1 µM (in vitro) | also measured
17 | 210 nM |  |  | c1ccc(-c2ccccc2N2CCN(CCc3coc4ccccc34)CC2)cc1 | > 90% | 99.5% | 102% |  |  | 
18 | 10 nM | 18 nM | 0.55 nM | Fc1cccc(-c2c(F)cccc2N2CCN(CCCc3c[nH]c4ccc(F)cc34)CC2)c1 | > 90% | > 90% | > 90% | 51.5 µL/min/mg | 26.9 min | 
19 | 120 nM |  |  | Fc1cccc(-c2cc(F)ccc2N2CCN(CCCCc3c[nH]c4ccc(F)cc34)CC2)c1 | > 90% | 96% | 97.5% |  |  | 
20 | 42 nM | 8.1 nM | 1.1 nM | Fc1cccc(-c2ccccc2N2CCN(CCCc3c[nH]c4ccc(F)cc34)CC2)c1 | > 90% | > 90% | > 90% | 50 µL/min/mg | 27.7 min | 
21 | 7.6 nM | 13 nM | 1.1 nM | Fc1ccc2[nH]cc(CCCN3CCN(c4ccccc4-c4ccccc4)CC3)c2c1 | > 90% | > 90% | > 90% |  |  | 
22 | 9.4 nM | 15 nM | 2.6 nM | Fc1cccc(-c2ccc(F)cc2N2CCN(CCCc3c[nH]c4ccc(F)cc34)CC2)c1 | > 90% | > 90% | > 90% | 48.1 µL/min/mg | 28.8 min | 
23 | 2900 nM |  |  | c1ccc(-c2ccccc2N2CCN(CCc3cc4ccccc4o3)CC2)cc1 | > 90% | 97.7% | 96.4% |  |  | 
24 | 31 nM | 62 nM | 12 nM | Fc1cccc(-c2cc(F)ccc2N2CCN(CCCc3c[nH]c4ccc(F)cc34)CC2)c1 | > 90% | > 90% | > 90% | 24.4 µL/min/mg | 56.8 min | Activity (Mus musculus [9]): 37%; Activity (Mus musculus [11]): 21%; Activity (Mus musculus [12]): 18%; Activity (Mus musculus [13]): Dose-dependent effect
